In patent publication EP2118137B1, “PEPTIDES AND POLYPEPTIDES WITH IMPROVED STABILITY USEFUL IN THE REGENERATION OF THE NERVOUS SYSTEM” (Neuronax, priority 2006, dated 2011):
“Also recorded” adds a separate entry of the source. Blank lines part the entries; values can stand above or below the molecule they belong to. Square brackets hold non-standard residues; d marks the D form. Peptide text beside a SMILES is read from it. 2Nal = N[C@@H](Cc1ccc2ccccc2c1)C(=O)O; Lys(iPr) = CC(C)NCCCC[C@H](N)C(=O)O; Abu = CC[C@H](N)C(=O)O

Tests used:
[1] = Stability of peptides in aqueous solution (HPLC purity on storage); assay type: physicochemical; settings: 22°C, 50% relative humidity, HPLC after 0, 3, 7, 11 and 22 days
Description: Les peptides synthétiques ont été mis en solution aqueuse (1,5 mg de peptide dissout dans 1000 µL d'eau stérile).
Leur pureté a été testée par HPLC, elle était d'au moins 97,0%.
Ces solutions ont ensuite été diluées : à 0,4 mL de chacune de ces solutions, on a ajouté 1,1 mL d'eau purifiée.
Ces solutions ont été placées en étuve à 22°C et 50% d'humidité relative, et analysées après : 0, 3, 7, 11 et 22 jours.
L'analyse a été faite par HPLC en gradient de phase inverse à une concentration de 0,4 mg/mL, avec les paramètres suivants : - cartouche Symétrie RP18 (Waters) 125 x 4,6 mm - phases mobiles A : H2O + TFA 0.1 % (w/v) B : Acétonitrile + TFA 0.1 % (v/v) - détection : 210 nm - débit : 1 ml/min - volume d'injection : 20 µl de solution (soit 8 µg de peptide) - gradient : […]
Les échantillons ont été placés en étuve à 22 °C, 50 % d'humidité relative et analysés à : 0 jours, 3 jours, 7 jours, 11 jours et 22 jours.
Les résultats sont présentés dans le Tableau 1 et sur la Figuré 1.
Le paramètre « TR » exprime le temps de rétention du peptide en minutes dans la colonne de HPLC.
Le paramètre « Pureté » exprimé la pureté du peptide en % tel que déterminé par HPLC.
La colonne « Impuretés : TR est % » indique pour le pic supplémentaire le plus intense, le temps de rétention en minutes et le pourcentage en masse. La colonne SEQ indique le numéro de la séquence (SEQ ID N° X).

[2] = system: cellules de la lignée B104; assay: Morphological differentiation and neurite outgrowth of B104 cells; assay type: cell-based, rat
Description: L'activité biologique des différents peptides a été analysée par ajout de chacun des peptides dans des cultures de cellules nerveuses et suivi des modifications morphologiques de ces cellules.
Des cellules de la lignée B104, issues de neuroblastome de rat, sont cultivées à raison de 1000 cellules par puits dans des plaques de 48 puits préalablement recouverts de poly-lysine (fourni par Sigma-Aldrich), dans du milieu de Eagle modifié par Dubelco (DMEM), supplémenté de glutamine et d'antibiotique, et additionné de 10% de sérum de veau foetal pendant la phase d'adhésion. Le milieu est ensuite remplacé par un nouveau milieu DMEM ne contenant pas de sérum et permettant la différenciation des cellules. Après traitement, c'est-à-dire après ajout du composé à tester, les cellules sont maintenues en culture à 37°C sous une atmosphère à 10% de CO2. L'évolution de la morphologie cellulaire et la prolifération sont suivies par examen microscopique en contraste de phase chaque jour sur la période de culture. La différenciation cellulaire, et en particulier l'effet sur la pousse neuritique, est alors mesurée.

cellules nerveuses = settings: added daily to the culture medium at its optimal dose; cited from earlier work
[3] = system: souris avec lésion ischémique partielle; assay: Mouse partial ischemic spinal cord lesion, functional evaluation of walking; assay type: in vivo; settings: partial ischemic lesion causing paralysis
Description: Une première caractérisation in vivo des phénomènes de repousse neuritique et de survie neuronale a été effectuée sur deux modèles d'animaux différents dans le cas du trauma de la moelle épinière (réparation de la moelle épinière après rupture).

cellules B104 = settings: cited from earlier work

stabilité en solution aqueuse [1]: stabilité en solution améliorée
Molecule: N=C(N)NCCC[C@H](NC(=O)[C@H](CO)NC(=O)[C@H](CS)NC(=O)[C@H](CO)NC(=O)[C@H](CO)NC(=O)[C@H](Cc1c[nH]c2ccccc12)NC(=O)CNC(=O)[C@H](CO)NC(=O)[C@@H](N)Cc1ccc2ccccc2c1)C(=O)N[C@@H](CO)C(=O)O [SEQ ID N°8, L-Nal2-S-G-W-S-S-C-S-R-S] (H-[2Nal]SGWSSCSRS-OH)

Molecule: CC[C@H](NC(=O)[C@H](CO)NC(=O)[C@H](CO)NC(=O)[C@H](Cc1c[nH]c2ccccc12)NC(=O)CNC(=O)[C@H](CO)NC(=O)[C@@H](N)Cc1c[nH]c2ccccc12)C(=O)N[C@@H](CO)C(=O)N[C@@H](CCCNC(=N)N)C(=O)N[C@@H](CO)C(N)=O [NH2-W-S-G-W-S-S-Abu-S-R-S-NH2] (H-WSGWSS[Abu]SRS-NH2)
induction de la pousse neuritique ([2]; B104 cells): s'est montré actif

Molecule: W-S-G-W-S-S-C-S-R-S-C-G (WSGWSSCSRSCG) [SEQ ID N°1, séquence la plus représentative d'un motif TSR de la SCO-spondine]
effet du peptide avec ajout quotidien (cellules nerveuses): l'effet observé était accentué | réponse des cellules B 104 (effet dose-réponse) [2]: proportionnelle à la concentration de peptide | étalement du corps cellulaire ([2]; 24 hours after adding the peptides): cet effet est présent | incidence du remplacement de l'extrémité carboxyterminale par une extrémité aminée sur l'effet du peptide ([2]; B104 cells): aucune incidence | nombre de neurites par cellule ([2]; after 3 days of culture): effet inducteur de la pousse neuritique | pousses neuritiques ([2]; after 3 days of culture): pousses neuritiques importantes | activité régénératrice (évaluation fonctionnelle au niveau de la marche) [3]: activité régénératrice | pousses neuritiques (cellules B104; after three days of culture, without serum): pousses neuritiques importantes | différenciation cellulaire (cellules B104): induit la pousse neuritique et l'agrégation cellulaire | nombre de neurites (cellules B104): induit une augmentation | taille du neurite le plus long (cellules B104): induit une augmentation | regroupements cellulaires (agrégation) (cellules B104; from 3 or 4 days of culture): apparition de regroupements de ces cellules B 104 différenciées | effet sur la pousse neuritique (dose) (cellules B104; increasing range of peptide concentrations): dépendant de la dose de peptide utilisée | stabilité en solution aqueuse [1]: se dégrade plus vite; also recorded: diminue en solution aqueuse avec le temps

stabilité en solution aqueuse [1]: stabilité en solution améliorée
Molecule: CC[C@H](NC(=O)[C@@H](N)Cc1c[nH]c2ccccc12)C(=O)NCC(=O)N[C@@H](Cc1c[nH]c2ccccc12)C(=O)N[C@@H](CO)C(=O)N[C@@H](CO)C(=O)N[C@@H](CS)C(=O)N[C@@H](CO)C(=O)N[C@@H](CCCNC(=N)N)C(=O)N[C@@H](CO)C(=O)O [SEQ ID N°7, W-Abu-G-W-S-S-C-S-R-S] (H-W[Abu]GWSSCSRS-OH)

stabilité en solution aqueuse [1]: stabilité en solution améliorée
Molecule: CC(C)NCCCC[C@H](NC(=O)[C@H](CO)NC(=O)[C@H](CS)NC(=O)[C@H](CO)NC(=O)[C@H](CO)NC(=O)[C@H](Cc1c[nH]c2ccccc12)NC(=O)CNC(=O)[C@H](CO)NC(=O)[C@@H](N)Cc1c[nH]c2ccccc12)C(=O)N[C@@H](CO)C(=O)O [SEQ ID N°6, W-S-G-W-S-S-C-S-K-(iPr)-S] (H-WSGWSSCS[Lys(iPr)]S-OH)

stabilité en solution aqueuse [1]: stabilité en solution améliorée
Molecule: CC[C@H](NC(=O)[C@H](CO)NC(=O)[C@H](CO)NC(=O)[C@H](Cc1c[nH]c2ccccc12)NC(=O)CNC(=O)[C@H](CO)NC(=O)[C@@H](N)Cc1c[nH]c2ccccc12)C(=O)N[C@@H](CO)C(=O)N[C@@H](CCCNC(=N)N)C(=O)N[C@@H](CO)C(=O)O [SEQ ID N°4, W-S-G-W-S-S-Abu-S-R-S] (H-WSGWSS[Abu]SRS-OH)

stabilité en solution aqueuse [1]: stabilité en solution améliorée
Molecule: CC[C@H](NC(=O)[C@H](CCCNC(=N)N)NC(=O)[C@H](CO)NC(=O)[C@H](CS)NC(=O)[C@H](CO)NC(=O)[C@H](CO)NC(=O)[C@H](Cc1c[nH]c2ccccc12)NC(=O)CNC(=O)[C@H](CO)NC(=O)[C@@H](N)Cc1c[nH]c2ccccc12)C(=O)O [SEQ ID N°5, W-S-G-W-S-S-C-S-R-Abu] (H-WSGWSSCSR[Abu]-OH)
